Molecules are shown by their SMILES.

In experiment [1] the target is 15-PGDH (Homo sapiens (Human), UniProt P15428). The experiment can be described thus: 15-PGDH inhibitory activity (NADH at 340 nm). The note with it: concentration inhibiting 50% of 15-PGDH activity; purified 15-PGDH, 21 μM PGE2, 0.25 mM NAD+. Type of experiment: biochemical. As for the experimental part:
The 15-PGDH cDNA plasmid containing the BamHI of the pGEX-2T expression vector and EcoRI restriction enzyme sites was transfected into E. coli BL-21 LysS by using conventional methods used in the art. Then, the transfected cells were cultured in an LB medium (500 ml) containing 50 μg/ml of ampicillin at a temperature of 37° C. and at a rate of 220 rpm until the OD600 reached 0.6. Then, isopropyl beta-D-thiogalactoxide (1 mM) was added and the cells were further cultured at the temperature of 25° C. for 12 hours. The cells were then centrifuged at the gravity of 4,000 g for 30 minutes at a temperature of 4° C. to collect a cell pellet. The cell pellet was dissolved in 20 ml of cell lysis buffer (containing 1×PBS buffer (pH 7.4): 1 mM EDTA and 0.1 mM DTT) and sonicated at a temperature of 4° C. for 14×10 s. The digested cells were centrifuged at the gravity of 4,000 g for 20 minutes at a temperature of 4° C. The supernatant was then slowly loaded onto a glutathione-sepharose 4B column equilibrated at a temperature of 4° C. with cell lysis buffer [containing 1×PBS buffer (pH 7.4), 1 mM EDTA, and 0.1 mM DTT]. Washing was performed thereon by using a dissolution buffer until the OD280 reached 0.005 or less. Then, 15-PGDH was eluted from the glutathione-sepharose 4B column at room temperature for 5 minutes by using an elution buffer [containing 50 mM Tris-HCl (pH 8.0), 10 mM reduced glutathione, 1 mM EDTA, and 0.1 mM DTT). The concentration of the purified enzyme was measured, and the purification level thereof was confirmed by SDS-PAGE.
That is, the cells were treated with a solution including 50 mM Tris-HCl (pH 7.5), 0.1 mM DTT, 0.25 mM (NAD+), 10 μg of purified 15-PGDH enzyme, 21 μM PGE2. and various concentrations (0.0001 μM to 64 μM) of the derivative compound according to the present disclosure. In this case, the total volume of the solution was 2 ml. Then, the absorbance of the reaction mixture was recorded at the wavelength of 340 nm. To measure the activity of the derivative compounds according to the present disclosure, which is an inhibitor of 15-PGDH, the average value of NADH absorbance at 340 nm at various concentrations was obtained from a standard curve.

Experiment [2] relates to A549 cells. The experiment can be described thus: Measurement of PGE2 concentration in A549 cell medium (ELISA). Type of experiment: cell-based, human. Conditions: for Increment %: PGE2 concentration versus PBS control, 5 μM, 12 hours; for PGE2 concentration: inhibitor 5 μM, medium collected after 12 hours, ELISA. On the procedure:
A549 cells were subcultured in RPMI 1640 medium (containing+8% fetal bovine serum (FBS) and antibiotic-antimycotic (AA)) for one week, and then, inoculated in a 6-well plate at 2.5×10^5 cells/mL (5×10^5 cells/well) and cultured for 24 hours in a 5% CO2 incubator at a temperature of 37° C. A549 cells are adenocarcinomic human alveolar basal epithelial cells which are derived from lung tissues. When cells were grown to about 80% confluence, a 15-PGDH inhibitor in 1×PBS buffer was injected at a concentration of 5 μM. To compare the results, the same amount of 1×PBS buffer was injected into a negative control, and, the treated cells were cultured in 5% CO2 incubator. After 12 hours, the medium was collected and the collected medium was assayed to measure PGE2 concentration by using an ELISA Kit (Abcam) according to the manufacturer's instructions. The concentration may be expressed as an exact value by plotting the calibration curve by using the absorbance value after diluting the standard in the medium by concentration.
On the technique in general: In an ELISA, binding on a coated surface is turned into a signal by an enzyme label.

Sequence of 15-PGDH (P15428 whole entry): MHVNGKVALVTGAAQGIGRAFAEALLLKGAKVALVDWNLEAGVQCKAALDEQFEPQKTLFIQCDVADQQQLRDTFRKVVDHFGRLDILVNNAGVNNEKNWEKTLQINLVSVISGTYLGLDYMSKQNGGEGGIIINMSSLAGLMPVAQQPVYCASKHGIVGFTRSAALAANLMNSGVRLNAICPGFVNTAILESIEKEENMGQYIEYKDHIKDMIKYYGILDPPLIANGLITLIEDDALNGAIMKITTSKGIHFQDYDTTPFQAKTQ

As usually defined, the IC50 is the concentration that inhibits the measured activity by half. Lower therefore signals greater potency in that assay. In turn, `O=C(CCCCc1ccccc1)Oc1ccc(/C=C2\SC(=O)NC2=O)cc1Cl` [Compound 15, (Z)-2-chloro-4-((2,4-dioxothiazolidin-5-ylidene)methyl)phenyl 5-phenylpentanoate] showed a half-inhibitory concentration (IC50) in experiment [1] of 44 nM. Moreover, in experiment [2], the Increment % was 84.11% and the PGE2 concentration turned out to be 220.3344 pg/mL.

Turning to `O=C1NC(=O)/C(=C/c2ccc(OC(=O)C3CC3)c(Br)c2)S1` [Compound 16, (Z)-2-bromo-4-((2,4-dioxothiazolidin-5-ylidene)methyl)phenyl cyclopropanecarboxylate], the IC50 in experiment [1] is 220 nM. Besides, in experiment [2], the Increment % turned out to be 12.12% and the PGE2 concentration stood at 283.7043 pg/mL.

In experiment [1], `O=C1NC(=O)/C(=C/c2ccc(OC(=O)C3CCC3)c(Br)c2)S1` [Compound 17, (Z)-2-bromo-4-((2,4-dioxothiazolidin-5-ylidene)methyl)phenyl cyclobutanecarboxylate] registered a half-inhibitory concentration (IC50) of 106 nM. Also, in experiment [2], the Increment % was 56.34% and the PGE2 concentration is 395.597 pg/mL.

Regarding `O=C1NC(=O)/C(=C/c2ccc(OC(=O)C3CCCC3)c(Br)c2)S1` [Compound 18, (Z)-2-bromo-4-((2,4-dioxothiazolidin-5-ylidene)methyl)phenyl cyclopentanecarboxylate], the midpoint of inhibition in experiment [1], the IC50, lay at 50 nM. Moreover, in experiment [2], the Increment % was −21.7% and the PGE2 concentration was found to be 198.1274 pg/mL.

As for `O=C(CC1CCCC1)Oc1ccc(/C=C2\SC(=O)NC2=O)cc1Br` [Compound 19, (Z)-2-bromo-4-((2,4-dioxothiazolidin-5-ylidene)methyl)phenyl 2-cyclopentylacetate], the IC50 in experiment [1] turned out to be 19.8 nM. In experiment [2], the Increment % is −8.11% and the PGE2 concentration was determined as 232.5151 pg/mL.

Regarding `O=C(CCC1CCCC1)Oc1ccc(/C=C2\SC(=O)NC2=O)cc1Br` [Compound 20, (Z)-2-bromo-4-((2,4-dioxothiazolidin-5-ylidene)methyl)phenyl 3-cyclopentylpropanoate], 15.8 nM corresponded to half-maximal inhibition in experiment [1] (IC50). Further, in experiment [2], the Increment % was 227.32% and the PGE2 concentration turned out to be 828.2384 pg/mL.

`O=C1NC(=O)/C(=C/c2ccc(OC(=O)C3CCCCC3)c(Br)c2)S1` [Compound 21, (Z)-2-bromo-4-((2,4-dioxothiazolidin-5-ylidene)methyl)phenyl cyclohexanecarboxylate]: in experiment [1], 37.6 nM corresponded to half-maximal inhibition (IC50). Moreover, in experiment [2], the Increment % came to 62.47% and the PGE2 concentration came out at 411.1081 pg/mL.

On to `O=C(CC1CCCCC1)Oc1ccc(/C=C2\SC(=O)NC2=O)cc1Br` [Compound 22, (Z)-2-bromo-4-((2,4-dioxothiazolidin-5-ylidene)methyl)phenyl 2-cyclohexylacetate], for which the midpoint of inhibition in experiment [1], the IC50, lay at 20.6 nM. In experiment [2], the Increment % turned out to be 89.77% and the PGE2 concentration was determined as 480.187 pg/mL.

Turning to `O=C(CCCC1CCCCC1)Oc1ccc(/C=C2\SC(=O)NC2=O)cc1Br` [Compound 24, (Z)-2-bromo-4-((2,4-dioxothiazolidin-5-ylidene)methyl)phenyl 4-cyclohexylbutanoate], it took 15.4 nM to reach half-maximal inhibition in experiment [1] (IC50). In experiment [2], the Increment % came to 299.32% and the PGE2 concentration is 1010.425 pg/mL.

In experiment [1], `O=C(CCCCC1CCCCC1)Oc1ccc(/C=C2\SC(=O)NC2=O)cc1Br` [Compound 25, (Z)-2-bromo-4-((2,4-dioxothiazolidin-5-ylidene)methyl)phenyl 5-cyclohexylpentanoate] gave an IC50 of 26.3 nM. Besides, in experiment [2], the Increment % stood at 5.34% and the PGE2 concentration came out at 266.5484 pg/mL.

In turn, `O=C(O)c1ccccc1.O=C1NC(=O)/C(=C/c2ccc(OC(=O)c3ccccc3)c(Br)c2)S1` [Compound 26, (Z)-2-bromo-4-((2,4-dioxothiazolidin-5-ylidene)methyl)phenylbenzoate] showed a concentration for half-maximal inhibition (IC50) in experiment [1] of 25.4 nM. For the same compound, in experiment [2], the Increment % is on record as −11.12% and the PGE2 concentration is 175.2752 pg/mL.

As for `O=C(Cc1ccccc1)Oc1ccc(/C=C2\SC(=O)NC2=O)cc1Br` [Compound 27, (Z)-2-bromo-4-((2,4-dioxothiazolidin-5-ylidene)methyl)phenyl 2-phenylacetate], in experiment [1], the 50% inhibitory concentration (IC50) came out at 40.6 nM. In addition, in experiment [2], the Increment % turned out to be 99.65% and the PGE2 concentration is 393.7184 pg/mL.

In the case of `O=C(CCc1ccccc1)Oc1ccc(/C=C2\SC(=O)NC2=O)cc1Br` [Compound 28, (Z)-2-bromo-4-((2,4-dioxothiazolidin-5-ylidene)methyl)phenyl 3-phenylpropanoate], in experiment [1], half-maximal inhibition (IC50) was put at 28.4 nM. Further, in experiment [2], the Increment % is 190.32% and the PGE2 concentration was 572.5235 pg/mL.

Compound `O=C(CCCc1ccccc1)Oc1ccc(/C=C2\SC(=O)NC2=O)cc1Br` [Compound 29, (Z)-2-bromo-4-((2,4-dioxothiazolidin-5-ylidene)methyl)phenyl 4-phenylbutanoate] yielded a half-maximal inhibitory concentration (IC50) in experiment [1] of 14.5 nM. For the same compound, in experiment [2], the Increment % came out at 367.81% and the PGE2 concentration was 922.5414 pg/mL.

`O=C(CCCCc1ccccc1)Oc1ccc(/C=C2\SC(=O)NC2=O)cc1Br` [Compound 30, (Z)-2-bromo-4-((2,4-dioxothiazolidin-5-ylidene)methyl)phenyl 5-phenylpentanoate] returned a concentration for half-maximal inhibition (IC50) in experiment [1] of 23.5 nM. In experiment [2], the Increment % is 42.35% and the PGE2 concentration came to 280.7203 pg/mL.

Regarding `COc1cc(/C=C2\SC(=O)NC2=O)ccc1OC(=O)C1CC1` [Compound 31, (Z)-4-((2,4-dioxothiazolidin-5-ylidene)methyl)-2-methoxyphenyl cyclopropanecarboxylate], the IC50 in experiment [1] came out at 1100 nM. Also, in experiment [2], the Increment % worked out at 1.13% and the PGE2 concentration was 199.4327 pg/mL.

Regarding `COc1cc(/C=C2\SC(=O)NC2=O)ccc1OC(=O)C1CCC1` [Compound 32, (Z)-4-((2,4-dioxothiazolidin-5-ylidene)methyl)-2-methoxyphenyl cyclobutanecarboxylate], the IC50 in experiment [1] is 1120 nM. Further, in experiment [2], the Increment % was 60.62% and the PGE2 concentration was 316.7495 pg/mL.

As for `COc1cc(/C=C2\SC(=O)NC2=O)ccc1OC(=O)C1CCCC1` [Compound 33, (Z)-4-((2,4-dioxothiazolidin-5-ylidene)methyl)-2-methoxyphenyl cyclopentanecarboxylate], the midpoint of inhibition in experiment [1], the IC50, lay at 494 nM. In addition, in experiment [2], the Increment % is −2.32% and the PGE2 concentration was 192.6292 pg/mL.

In turn, `COc1cc(/C=C2\SC(=O)NC2=O)ccc1OC(=O)CC1CCCC1` [Compound 34, (Z)-4-((2,4-dioxothiazolidin-5-ylidene)methyl)-2-methoxyphenyl 2-cyclopentylacetate] returned an IC50 in experiment [1] of 60.2 nM. In addition, in experiment [2], the Increment % was −70.77% and the PGE2 concentration was 57.64 pg/mL.

`COc1cc(/C=C2\SC(=O)NC2=O)ccc1OC(=O)CCC1CCCC1` [Compound 35, (Z)-4-((2,4-dioxothiazolidin-5-ylidene)methyl)-2-methoxyphenyl 3-cyclopentylpropanoate]: the IC50 in experiment [1] is 23.4 nM. Further, in experiment [2], the Increment % was 130.79% and the PGE2 concentration was 455.1278 pg/mL.

Take `COc1cc(/C=C2\SC(=O)NC2=O)ccc1OC(=O)C1CCCCC1` [Compound 36, (Z)-4-((2,4-dioxothiazolidin-5-ylidene)methyl)-2-methoxyphenyl cyclohexanecarboxylate]: in experiment [1], the IC50 came to 242 nM. For the same compound, in experiment [2], the Increment % is 101.32% and the PGE2 concentration was 408.196 pg/mL.

As to `COc1cc(/C=C2\SC(=O)NC2=O)ccc1OC(=O)CC1CCCCC1` [Compound 37, (Z)-4-((2,4-dioxothiazolidin-5-ylidene)methyl)-2-methoxyphenyl 2-cyclohexylacetate], it took 27.8 nM to reach half-maximal inhibition in experiment [1] (IC50). Besides, in experiment [2], the Increment % is 88.85% and the PGE2 concentration is 382.9119 pg/mL.

The record behind these values is patent publication US10787425B2, “Thiazolidinedione derivative and use thereof” (INDUSTRY-ACADEMIC COOPERATION FOUNDATION CHOSUN UNIVERSITY, priority 2016, dated 2020).
